Measured values published in patent US12473290B2, “Imidazopyridazine compounds useful as modulators of IL-12, IL-23 and/or IFN alpha responses” (BRISTOL-MYERS SQUIBB COMPANY, priority 2019, dated 2025).
pIC50: −log10 of the molar value.

Assays:
[1] = Kit225 T Cell Assay, IL-23-stimulated STAT-dependent luciferase reporter; type: cell-based; conditions: Kit225 T cells, 20 ng/mL human recombinant IL-23, 5-6 hours, luciferase expression
Experimental: (§1) Kit225 T cells with a stably-integrated STAT-dependent luciferase reporter were plated in RPMI (Gibco) containing 10% heat-inactivated FBS (Gibco) and 100 U/mL PenStrep (Gibco). The cells were then stimulated with either 20 ng/mL human recombinant IL-23 or 200 U/mL human recombinant IFNα (PBL InterferonSource) for 5-6 hours. Luciferase expression was measured using the STEADY-GLO® Luciferase Assay System (Promega) according to the manufacturer's instructions. Inhibition data were calculated by comparison to no inhibitor control wells for 0% inhibition and non-stimulated control wells for 100% inhibition. Dose response curves were generated to determine the concentration required to inhibit 50% of cellular response (IC50) as derived by non-linear regression analysis.

[2] = tested on: IFNα Kit225 Reporter (Kit225 T cells with a stably-integrated STAT-dependent luciferase reporter, stimulated with IFNα); test: Kit225 T Cell Assay, IFNα-stimulated STAT-dependent luciferase reporter; type: cell-based; conditions: 200 U/mL human recombinant IFNα, 5-6 hours, luciferase expression
Experimental: as §1

SMILES	pIC50 [1]	pIC50 [2]
N#Cc1cnc2c(Nc3ccc(C(=O)NCC4CCCO4)c(OCC(F)F)n3)cc(NC3CCOCC3)nn12 (centres unmarked) [Example 45, 6-({3-cyano-6-[(oxan-4-yl)amino]imidazo[1,2-b]pyridazin-8-yl}amino)-2-(2,2-difluoroethoxy)-N-[(oxolan-2-yl)methyl]pyridine-3-carboxamide]	6.13	6.59
CC(C)Oc1nc(Nc2cc(N[C@@H]3CCCC[C@H]3O)nn3c(C#N)cnc23)ccc1C(=O)N1CCCC1 [Example 1, 6-{[(1R,2R)-2-hydroxycyclohexyl]amino}-8-{[6-(propan-2-yloxy)-5-(pyrrolidine-1-carbonyl)pyridin-2-yl]amino}imidazo[1,2-b]pyridazine-3-carbonitrile]	6.62	6.08
CC(C)(C)Oc1nc(Nc2cc(NC3CCOCC3)nn3c(C#N)cnc23)ccc1C(=O)N1CCCC1 [Example 24, 8-{[6-(tert-butoxy)-5-(pyrrolidine-1-carbonyl)pyridin-2-yl]amino}-6-[(oxan-4-yl)amino]imidazo[1,2-b]pyridazine-3-carbonitrile]	6.15	6.22
N#Cc1cnc2c(Nc3ccc(C(=O)N4CCCC4)c(OCC(F)(F)F)n3)cc(N[C@@H]3CCCC[C@H]3O)nn12 [Example 4, 6-{[(1R,2R)-2-hydroxycyclohexyl]amino}-8-{[5-(pyrrolidine-1-carbonyl)-6-(2,2,2-trifluoroethoxy)pyridin-2-yl]amino}imidazo[1,2-b]pyridazine-3-carbonitrile]	6.34	6.28
CN(CCc1ccccn1)C(=O)c1ccc(Nc2cc(N[C@@H]3CCCC[C@H]3O)nn3c(C#N)cnc23)nc1N(C)C [Example 31, 6-[(3-cyano-6-{[(1R,2R)-2-hydroxycyclohexyl]amino}imidazo[1,2-b]pyridazin-8-yl)amino]-2-(dimethylamino)-N-methyl-N-[2-(pyridin-2-yl)ethyl]pyridine-3-carboxamide]	6.19	6.06
CCC1(C)NC(=O)N(c2cccc(Nc3cc(N[C@@H]4CCCC[C@H]4O)nn4c(C#N)cnc34)n2)C1=O (stereo partly drawn) [Example 57, 8-{[6-(4-ethyl-4-methyl-2,5-dioxoimidazolidin-1-yl)pyridin-2-yl]amino}-6-{[(1R,2R)-2-hydroxycyclohexyl]amino}imidazo[1,2-b]pyridazine-3-carbonitrile]	6.04	6.12
CC(C)(C)Oc1nc(Nc2cc(N[C@H]3CCCC[C@@H]3O)nn3c(C#N)cnc23)ccc1C(=O)N1CCCC1 [Example 5, 8-{[6-(tert-butoxy)-5-(pyrrolidine-1-carbonyl)pyridin-2-yl]amino}-6-{[(1S,2S)-2-hydroxycyclohexyl]amino}imidazo[1,2-b]pyridazine-3-carbonitrile]	5.95	5.89
N#Cc1cnc2c(Nc3ccc(C(=O)N4CCCC4)c(N4CC(F)C4)n3)cc(N[C@H]3CCCC[C@@H]3O)nn12 [Example 15, 8-{[6-(3-fluoroazetidin-1-yl)-5-(pyrrolidine-1-carbonyl)pyridin-2-yl]amino}-6-{[(1S,2S)-2-hydroxycyclohexyl]amino}imidazo[1,2-b]pyridazine-3-carbonitrile]	6.19	6.09
CC(C)(C)CNc1cc(Nc2cccc(NC(=O)C3CC3)n2)c2ncc(C#N)n2n1 [Example 28, N-[6-({3-cyano-6-[(2,2-dimethylpropyl)amino]imidazo[1,2-b]pyridazin-8-yl}amino)pyridin-2-yl]cyclopropanecarboxamide]	6.59	6.34
CC(=O)NCc1ccc(-c2cccc(Nc3cc(N[C@@H]4CCCC[C@H]4O)nn4c(C#N)cnc34)n2)cc1 [Example 37, N-[(4-{6-[(3-cyano-6-{[(1R,2R)-2-hydroxycyclohexyl]amino}imidazo[1,2-b]pyridazin-8-yl)amino]pyridin-2-yl}phenyl)methyl]acetamide]	6.33	6.26
N#Cc1cnc2c(Nc3cccc(C(F)(F)F)n3)cc(NC34CC5CC(O)(CC(O)(C5)C3)C4)nn12 [Example 20, 6-[(3,5-dihydroxyadamantan-1-yl)amino]-8-{[6-(trifluoromethyl)pyridin-2-yl]amino}imidazo[1,2-b]pyridazine-3-carbonitrile]	6.36	6.82
CC(C)(O)C(=O)Nc1cccc(Nc2cc(NC3CCOCC3)nn3c(C#N)cnc23)n1 [Example 25, N-[6-({3-cyano-6-[(oxan-4-yl)amino]imidazo[1,2-b]pyridazin-8-yl}amino)pyridin-2-yl]-2-hydroxy-2-methylpropanamide]	6.47	6.35
CC1(C)CCCN1C(=O)c1ccc(Nc2cc(N[C@@H]3CCCC[C@H]3O)nn3c(C#N)cnc23)nc1 [Example 16, 8-{[5-(2,2-dimethylpyrrolidine-1-carbonyl)pyridin-2-yl]amino}-6-{[(1R,2R)-2-hydroxycyclohexyl]amino}imidazo[1,2-b]pyridazine-3-carbonitrile]	7.05	6.89
N#Cc1cnc2c(Nc3ccc(C(=O)N4CCCC4)c(OCC(F)F)n3)cc(N[C@H]3CCCC[C@@H]3O)nn12 [Example 13, 8-{[6-(2,2-difluoroethoxy)-5-(pyrrolidine-1-carbonyl)pyridin-2-yl]amino}-6-{[(1S,2S)-2-hydroxycyclohexyl]amino}imidazo[1,2-b]pyridazine-3-carbonitrile]	6.35	6.19
CC(C)Oc1nc(Nc2cc(NC3CCOCC3)nn3c(C#N)cnc23)ccc1C(=O)N1CCCC1 [Example 43, 6-[(oxan-4-yl)amino]-8-{[6-(propan-2-yloxy)-5-(pyrrolidine-1-carbonyl)pyridin-2-yl]amino}imidazo[1,2-b]pyridazine-3-carbonitrile]	6.80	6.35
COCCNC(=O)c1ccc(Nc2cc(N[C@@H]3CCCC[C@H]3O)nn3c(C#N)cnc23)nc1N(C)C [Example 32, 6-[(3-cyano-6-{[(1R,2R)-2-hydroxycyclohexyl]amino}imidazo[1,2-b]pyridazin-8-yl)amino]-2-(dimethylamino)-N-(2-methoxyethyl)pyridine-3-carboxamide]	6.17	6.12
CC(C)(C)C(=O)Nc1cccc(Nc2cc(NCC3CC3)nn3c(C#N)cnc23)n1 [Example 26, N-[6-({3-cyano-6-[(cyclopropylmethyl)amino]imidazo[1,2-b]pyridazin-8-yl}amino)pyridin-2-yl]-2,2-dimethylpropanamide]	6.05	6.70
N#Cc1cnc2c(Nc3cccc(N4CCCCCC4=O)n3)cc(N[C@@H]3CCCC[C@H]3O)nn12 [Example 59, 6-{[(1R,2R)-2-hydroxycyclohexyl]amino}-8-{[6-(2-oxoazepan-1-yl)pyridin-2-yl]amino}imidazo[1,2-b]pyridazine-3-carbonitrile]	6.18	6.03
CC(C)(C)C(=O)Nc1cccc(Nc2cc(N[C@@H]3CCCC[C@H]3O)nn3c(C#N)cnc23)n1 [Example 7, N-{6-[(3-cyano-6-{[(1R,2R)-2-hydroxycyclohexyl]amino}imidazo[1,2-b]pyridazin-8-yl)amino]pyridin-2-yl}-2,2-dimethylpropanamide]	6.21	6.09
CN(C(=O)c1ccc(Nc2cc(NC3CCOCC3)nn3c(C#N)cnc23)nc1OCC(F)F)C1COC1 [Example 44, 6-({3-cyano-6-[(oxan-4-yl)amino]imidazo[1,2-b]pyridazin-8-yl}amino)-2-(2,2-difluoroethoxy)-N-methyl-N-(oxetan-3-yl)pyridine-3-carboxamide]	6.62	6.07
N#Cc1cnc2c(Nc3cccc(NC(=O)C4CC4)n3)cc(NCC3CC3)nn12 [Example 27, N-[6-({3-cyano-6-[(cyclopropylmethyl)amino]imidazo[1,2-b]pyridazin-8-yl}amino)pyridin-2-yl]cyclopropanecarboxamide]	6.51	6.80
CC(C)(C)Oc1nc(Nc2cc(N[C@@H]3CCCC[C@H]3O)nn3c(C#N)cnc23)ccc1C(=O)N1CCCC1 [Example 12, 8-{[6-(tert-butoxy)-5-(pyrrolidine-1-carbonyl)pyridin-2-yl]amino}-6-{[(1R,2R)-2-hydroxycyclohexyl]amino}imidazo[1,2-b]pyridazine-3-carbonitrile]	5.56	6.42
N#Cc1cnc2c(Nc3ccc(C(=O)N4CCCC4)cn3)cc(NC3CCOCC3)nn12 [Example 23, 6-[(oxan-4-yl)amino]-8-{[5-(pyrrolidine-1-carbonyl)pyridin-2-yl]amino}imidazo[1,2-b]pyridazine-3-carbonitrile]	6.33	6.47
N#Cc1cnc2c(Nc3cccc(N4CCN(S(=O)(=O)N5CCOCC5)CC4)n3)cc(N[C@@H]3CCCC[C@H]3O)nn12 [Example 39, 6-{[(1R,2R)-2-hydroxycyclohexyl]amino}-8-({6-[4-(morpholine-4-sulfonyl)piperazin-1-yl]pyridin-2-yl}amino)imidazo[1,2-b]pyridazine-3-carbonitrile]	6.25	6.10
C[C@@H]1COC[C@H](C)N1C(=O)c1ccc(Nc2cc(N[C@H]3CCCC[C@@H]3O)nn3c(C#N)cnc23)nc1OCC(F)F [Example 36, 8-{[6-(2,2-difluoroethoxy)-5-[(3R,5S)-3,5-dimethylmorpholine-4-carbonyl]pyridin-2-yl]amino}-6-{[(1S,2S)-2-hydroxycyclohexyl]amino}imidazo[1,2-b]pyridazine-3-carbonitrile]	6.30	6.12
